Source: patent US10646496B2, “Joint application of statin and adrenocortical hormone for treating chronic subdural hematoma” (priority 2016, dated 2020)
Where “and” joins values, the source holds several entries; their conditions need not be identical. Equal entries are not always repeated. Where two headings read alike, the source gives them in different places.

How the values were obtained:
[1] = system: VEGF, TGF-β, MMP-9 and Ang-1/2; experiment: Rat subdural hematoma model: factor expression in hematoma capsule/cavity (real-time PCR, ELISA); type: in vivo
From the text: In FIG. 1 to FIG. 9, “#” denotes a statistically significant difference in the small-dose group and the large-dose group as compared with the control group; and “*” denotes a statistically significant difference between the small-dose group and the large-dose group.

[2] = system: chronic subdural hematoma; details: for Hematoma amount in the fourth week, average value: treatment for one month, conservatively successful patients
[3] = system: VEGF, TGF-β, MMP-9 and Ang-1/2; details: small dose of atorvastatin, recent animal experiments; cited from earlier work
[4] = large-dose group 8 mg/kg/day oral, 2 days
[5] = large-dose group 8 mg/kg/day, 7 days after the operation
[6] = small-dose group 3 mg/kg/day oral, 2 days
[7] = small-dose group 3 mg/kg/day, 7 days after the operation, vs control and large-dose group
[8] = large-dose 5 mg/kg/day, 28 rats
[9] = small-dose 3 mg/kg/day, 30 rats

In the case of `CC(C)c1c(C(=O)Nc2ccccc2)c(-c2ccccc2)c(-c2ccc(F)cc2)n1CC[C@@H](O)C[C@@H](O)CC(=O)O` [atorvastatin], the “expression of MMP-9” value [1, 4] is reported as “significantly higher”, the “expression of TGFβ” value [1, 4] is reported as “significantly higher” and the “expression of VEGF” value [1, 4] is reported as “significantly higher”. The “expression of Ang2” value [1, 5] was “high expressions”, the “expression of MMP-9” value [1, 5] was “high expressions” and the “expression of TGF-β” value [1, 5] was “high expressions”. For the same compound, the “expression of VEGF” value [1, 5] was “high expressions”, the “mRNA expression of hematoma capsule Ang1” value [1, 6] was “significantly higher” and the “mRNA expression of hematoma capsule VEGF” value [1, 6] was “significantly higher”. For the same compound, the Ang1 [1, 7] was “significantly higher”, the “expression level of MMP-9” value [1, 7] was “significantly lower” and the “expression level of VEGF” value [1, 7] was “significantly lower”. For the same compound, the Injury infection (subcutaneous hematoma; [8]) was 4, the “Rats died in the treatment” value (subcutaneous hematoma; [8]) was 7 and the death rate (subcutaneous hematoma; large-dose group compared with small-dose atorvastatin group) was “significantly improved”. For the same compound, the hormone-caused complications (subcutaneous hematoma; rat, in vivo) was “significantly increased”, the Poor condition (subcutaneous hematoma; rat, in vivo, 3 mg/kg/day) was 3 and the Poor condition (subcutaneous hematoma; rat, in vivo, 5 mg/kg/day) was 6. The Injury infection (subcutaneous hematoma; [9]) was 1, the “Rats died in the treatment” value (subcutaneous hematoma; [9]) was 2 and the “Hematoma amount in the fourth week, average value” ([2]; atorvastatin alone) was 28.29 ± 29.47 mL and 28.29 mL. For the same compound, the “local TNF-α and IL-6 gene and protein levels in the hematoma capsule” value [3] was “significantly reduce”.

For `C[C@@H]1C[C@H]2[C@@H]3CCC4=CC(=O)C=C[C@]4(C)[C@@]3(F)[C@@H](O)C[C@]2(C)[C@@]1(O)C(=O)CO` [dexamethasone], the “Reduced hematoma amount in the fourth week, average value” ([2]; small dose dexamethasone alone) was 24.71 mL, the “patients with no therapeutic effect, transferred to surgical treatment” value ([2]; small dose dexamethasone alone, among the 15 patients) was 5 patients and the “average hematoma absorption rate” value ([2]; small dose dexamethasone alone, fourth week / one month after administration) was 35%. For the same compound, the “Hematoma amount in the fourth week” value ([2]; small dose dexamethasone alone, oral, 0.75 mg 3x/day wk 1, 2x/day wk 2-3, 1x/day wk 4, individual patients (15)) was 40.95 ml and 80.00 ml (2×) and 36.30 ml and 32.73 ml and 96.53 ml and 39.88 ml and 30.25 ml and 35.00 ml and 37.00 ml, the “Hematoma amount in the fourth week, average value” ([2]; small dose dexamethasone alone) was 50.86 ± 24.52 mL and 50.86 mL and the “Reduced hematoma amount in the fourth week” value ([2]; small dose dexamethasone alone, individual patients (15)) was 20.93 mL and 25.00 mL and 39.64 mL and 23.90 mL and 8.13 mL and 38.43 mL and 24.08 mL and 36.40 mL and 13.60 mL and 17.00 mL.
